How the values were obtained:
A1 receptor = details: literature, in words; cited from earlier work
adenosine A1 receptor = biological target: T1, adenosine A1 receptor (Rattus norvegicus, UniProt P25099); assay: In vitro binding to adenosine A1 receptor, radioligand [^3 H]-(R)-PIA; details: single determinations only; for Ki: [^3 H]-(R)-PIA radioligand; for Ratio A2 /A1: ratio of A2 Ki to A1 Ki
T1 construct: from tissue
T1 sequence (P25099 1-326): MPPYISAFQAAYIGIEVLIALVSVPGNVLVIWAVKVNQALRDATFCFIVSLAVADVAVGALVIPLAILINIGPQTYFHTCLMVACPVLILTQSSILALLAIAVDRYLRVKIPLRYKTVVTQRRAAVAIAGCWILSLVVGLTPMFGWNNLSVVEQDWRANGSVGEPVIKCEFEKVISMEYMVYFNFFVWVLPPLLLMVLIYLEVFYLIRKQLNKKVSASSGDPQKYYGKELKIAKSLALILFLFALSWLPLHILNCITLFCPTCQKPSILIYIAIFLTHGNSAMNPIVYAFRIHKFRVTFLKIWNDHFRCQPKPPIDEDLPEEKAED
Description: (§1) Evaluation of in vitro binding to adenosine A1 and A2 receptors
(§2) The methods used are described fully in European Journal of Pharmacology, 1993, 242, 221-228.

A2 receptor = biological target: T2, A2 receptor (Rattus norvegicus, UniProt P30543); assay: In vitro binding to adenosine A2 receptor, radioligand [^3 H]-CGS 21680; details: [^3 H]-CGS 21680 radioligand; single determinations only
T2 construct: from tissue
T2 sequence (P30543 whole entry): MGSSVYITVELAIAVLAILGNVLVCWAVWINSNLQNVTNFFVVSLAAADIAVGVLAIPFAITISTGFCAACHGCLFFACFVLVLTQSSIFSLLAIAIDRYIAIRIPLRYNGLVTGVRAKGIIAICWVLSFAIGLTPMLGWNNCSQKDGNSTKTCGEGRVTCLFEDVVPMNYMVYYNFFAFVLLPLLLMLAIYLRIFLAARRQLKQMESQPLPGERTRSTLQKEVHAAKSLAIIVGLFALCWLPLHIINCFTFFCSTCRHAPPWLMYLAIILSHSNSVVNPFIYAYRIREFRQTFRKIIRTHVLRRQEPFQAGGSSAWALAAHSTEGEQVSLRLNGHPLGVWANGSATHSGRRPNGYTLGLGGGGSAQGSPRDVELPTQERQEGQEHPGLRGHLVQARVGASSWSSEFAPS
Description: as §1, §2

Row | Structure (SMILES) | Ki (adenosine A1 receptor) | Ratio A2 /A1 (adenosine A1 receptor) | Ki (A2 receptor) | selectivity for the A1 receptor over the A2 receptor (A1 receptor)
1 | OC[C@H]1O[C@@H](n2cnc3c(NC4CCCC4)nc(Cl)nc32)[C@H](O)[C@@H]1O [CCPA, 2-chloro-N-cyclopentyladenosine] |  |  |  | most selective for the A1 receptor over the A2 receptor
2 | Cc1nnc(SC[C@@H](C)Nc2nc(Cl)nc3c2ncn3[C@@H]2O[C@H](CO)[C@@H](O)[C@H]2O)s1 [Example 3, 2-Chloro-N-{(R)-1-[5-methyl-(1,3,4-thiadiazol-2-yl)]thio-2-propyl}adenosine] | 0.009 µM | 110 | 0.99 µM | 
3 | C[C@H](CSc1nc2ccccc2s1)Nc1nc(F)nc2c1ncn2[C@@H]1O[C@H](CO)[C@@H](O)[C@H]1O [Example 13, N-[(R)-1-(2-Benzothiazolyl)thio-2-propyl]-2-fluoroadenosine] | 0.0034 µM | 756 | 2.57 µM | 
4 | CC[C@H](CSc1nc2ccccc2s1)Nc1nc(Cl)nc2c1ncn2[C@@H]1O[C@H](CO)[C@@H](O)[C@H]1O [Example 15, N-[(R)-1-(2-Benzothiazolyl)thio-2-butyl]-2-chloroadenosine] | 0.007 µM | 136 | 0.95 µM | 

Now from value to compound, other results behind:

Row | Ki (adenosine A1 receptor) | Ratio A2 /A1 (adenosine A1 receptor) | Ki (A2 receptor) | Structure (SMILES) | selectivity for the A1 receptor over the A2 receptor (A1 receptor)
5 | 0.01 µM | 100 | 1 µM | C[C@H](CSc1nc2cc(Cl)ccc2s1)Nc1nc(Cl)nc2c1ncn2[C@@H]1O[C@H](CO)[C@@H](O)[C@H]1O [Example 22, 2-Chloro-N-[(R)-1-(5-chloro-2-benzothiazolyl)thio-2-propyl]adenosine] | 
6 | 0.0045 µM | 38 | 0.17 µM | C[C@H](CSc1cccs1)Nc1nc(Cl)nc2c1ncn2[C@@H]1O[C@H](CO)[C@@H](O)[C@H]1O [Example 23, 2-Chloro-N-[(R)-1-(2-thienyl)thio-2-propyl]adenosine] | 
7 | 0.014 µM | 355 | 4.97 µM | C[C@H](CSc1n[nH]c(-c2ccccc2)n1)Nc1nc(Cl)nc2c1ncn2[C@@H]1O[C@H](CO)[C@@H](O)[C@H]1O [Example 27, 2-Chloro-N-{(R)-1-[5-phenyl-(1,2,4-triazol-3-yl)]thio-2-propyl}adenosine] | 
